Measurements taken from US20120255051A1, “HERBICIDE TOLERANT PLANTS” (priority 2009, published 2012).
“And” between values parts separate entries of the source, which are not always exact repeats. Identical values can stand only once.

Tested on: Brassica plants comprising mutant AHAS alleles
Test: Field trial, pre-planting treatment (0, 10, 20, 30 g a.i./ha), two locations in Canada: ERG, EST1, EST2, PPTOX, VIG1, VIG2, VIG3 scores
Assay type: in vivo, Brassica napus
Details: for vigor3 (VIG3) score, Av: Elite parent line plants
Excerpt: Tests were set up and conducted to asses the growth and performance of plants comprising AHAS full knock-out alleles, and to further analyze the correlation between the presence of full knockout and missense AHAS genes in Brassica plants and plant growth and herbicide tolerance of the Brassica plants in the field. To this end, the Brassica plants identified in Example 1 and 2 were backcrossed two times with an elite parent line, and subsequently selfed twice to obtain homozygous plants (BC2S2). Plants were grown as row plots in a split plot design with three replicates (main plots=herbicide treatments, subplots=genotypes) at two locations in Canada. Treatment pre-planting was carried out on the soil about two days before sowing with a dose of 0 (treatment A), 10 (treatment B), 20 (treatment C) or 30 (treatment D) g a.i./ha of thiencarbazone methyl. Herbicide tolerance was measured by scoring for different parameters. The parameter emergence (ERG) was scored at the cotyledon stage on a scale 1-9, where 1 means late emergence and 9 means early emergence. Establishment was scored 14 days after sowing (EST1) and 21 days after sowing (EST2). Scores were from 1 to 9, where 1 is the worst establishment (least plants that emerged), and 9 is the best establishment (most plants emerged). Phytotoxicity (PPTOX) was determined after establishment. Plants were evaluated on a scale of 1 to 9, where 1=completely yellowing, 5=50% of plant is yellow and 9=no yellowing. The vigor scores (see above) were determined at 1-2 leaf stage (VIG1), 7 days after VIG1 (VIG2) and 14 days after VIG1 (VIG3). The average values (Av) and standard deviations (SD) of the scores for the different parameters are represented in Table 7a-g.
Further, the contribution of the knock-out allele to herbicide tolerance conferred by the missense allele was calculated. First, the scores were corrected for a possible effect of the growth per se, independent of herbicide treatment. To this end, the scores for treatments B, C and D were divided by the scores for treatment A for the same genotype and for the same parameter (corrected herbicide tolerance scores). Next, the effect of the knock-out allele to these corrected herbicide tolerance scores obtained by the missense allele was calculated. Therefore, the corrected herbicide tolerance scores for the missense—knock-out allele combination was divided by the corrected herbicide tolerance scores for the missense allele—wild-type combination. In case the knock-out allele has no effect on herbicide tolerance conferred by the missense allele, this ratio should be 1. In case the knock-out allele positively contributes to the herbicide tolerance conferred by the missense allele, this ratio should be higher than 1. The results for the contribution of the knock-out allele to herbicide tolerance conferred by the missense allele as calculated above are shown in table 8.

[1] = AHAS1 WT/AHAS3 WT, 30 g a.i./ha pre-planting (D), Location A
[2] = AHAS1 WT/AHAS3 WT, 30 g a.i./ha pre-planting (D), Location B
[3] = Elite parent line, 10 g a.i./ha pre-planting (B), Location A
[4] = Elite parent line, 10 g a.i./ha pre-planting (B), Location B
[5] = Elite parent line, 20 g a.i./ha pre-planting (C), Location A
[6] = Elite parent line, 20 g a.i./ha pre-planting (C), Location B
[7] = Elite parent line, 30 g a.i./ha pre-planting (D), Location A
[8] = Elite parent line, 30 g a.i./ha pre-planting (D), Location B
[9] = Elite parent line, treatment B 10 g a.i./ha pre-planting, Location A
[10] = Elite parent line, treatment B 10 g a.i./ha pre-planting, Location B
[11] = Elite parent line, treatment C 20 g a.i./ha pre-planting, Location A
[12] = Elite parent line, treatment C 20 g a.i./ha pre-planting, Location B
[13] = Elite parent line, treatment D 30 g a.i./ha pre-planting, Location A
[14] = Elite parent line, treatment D 30 g a.i./ha pre-planting, Location B
[15] = Location A, treatment B 10 g a.i./ha pre-planting, ratio >1 = positive contribution

For COC(=O)c1csc(C)c1S(=O)(=O)NC(=O)n1nc(OC)n(C)c1=O [thiencarbazone-methyl, methyl 4-[(4,5-dihydro-3-methoxy-4-methyl-5-oxo-1H-1,2,4-triazol-1-yl)carbonylsulfamoyl]-5-methylthiophene-3-carboxylate], the “vigor1 (VIG1) score, Av” value [1] was 1.00, the “vigor2 (VIG2) score, Av” value [1] was 1.00 and the “establishment (EST2) score, Av” value [2] was 1.33 and 2.00. For the same molecule, the “phytotoxicity (PPTOX) score, Av” value [2] was 1.00 and 2.00, the “vigor1 (VIG1) score, Av” value [2] was 1.33 and the “vigor2 (VIG2) score, Av” value [2] was 1.33 and 1.00. The “vigor3 (VIG3) score, Av” value (10 g a.i./ha (treatment B) pre-planting, Location A) was 1.00, the “vigor3 (VIG3) score, Av” value (10 g a.i./ha (treatment B) pre-planting, Location B) was 3.67 and the “vigor3 (VIG3) score, Av” value (20 g a.i./ha (treatment C) pre-planting, Location A) was 1.00. For the same molecule, the “vigor3 (VIG3) score, Av” value (20 g a.i./ha (treatment C) pre-planting, Location B) was 1.00, the “vigor3 (VIG3) score, Av” value (30 g a.i./ha (treatment D) pre-planting, Location A) was 1.00 and the “vigor3 (VIG3) score, Av” value (30 g a.i./ha (treatment D) pre-planting, Location B) was 1.00. For the same molecule, the “establishment (EST2) score, Av” value [3] was 2.00, the “phytotoxicity (PPTOX) score, Av” value [3] was 1.00 and the “vigor1 (VIG1) score, Av” value [3] was 1.00. The “vigor2 (VIG2) score, Av” value [3] was 1.00, the “establishment (EST2) score, Av” value [4] was 6.00 and the “phytotoxicity (PPTOX) score, Av” value [4] was 3.67. The “vigor1 (VIG1) score, Av” value [4] was 4.00, the “vigor2 (VIG2) score, Av” value [4] was 4.00 and the “establishment (EST2) score, Av” value [5] was 2.33. For the same molecule, the “phytotoxicity (PPTOX) score, Av” value [5] was 1.00, the “vigor1 (VIG1) score, Av” value [5] was 1.33 and the “vigor2 (VIG2) score, Av” value [5] was 1.00. For the same molecule, the “establishment (EST2) score, Av” value [6] was 4.67, the “phytotoxicity (PPTOX) score, Av” value [6] was 1.67 and the “vigor1 (VIG1) score, Av” value [6] was 2.00. The “vigor2 (VIG2) score, Av” value [6] was 2.00, the “establishment (EST2) score, Av” value [7] was 2.00 and the “phytotoxicity (PPTOX) score, Av” value [7] was 1.00. For the same molecule, the “vigor1 (VIG1) score, Av” value [7] was 1.00, the “vigor2 (VIG2) score, Av” value [7] was 1.00 and the “establishment (EST2) score, Av” value [8] was 4.00. The “phytotoxicity (PPTOX) score, Av” value [8] was 1.00, the “vigor1 (VIG1) score, Av” value [8] was 1.33 and the “vigor2 (VIG2) score, Av” value [8] was 1.00. The “emergence (ERG) score Av” value [9] was 2.00, the “establishment (EST1) score Av, 14 days after sowing” value (from here on “establishment (EST1) score Av”) [9] was 2.00 and the “emergence (ERG) score Av” value [10] was 5.00. The “establishment (EST1) score Av” value [10] was 6.67, the “emergence (ERG) score Av” value [11] was 2.33 and the “establishment (EST1) score Av” value [11] was 2.33. The “emergence (ERG) score Av” value [12] was 4.33, the “establishment (EST1) score Av” value [12] was 4.67 and the “emergence (ERG) score Av” value [13] was 2.00. The “establishment (EST1) score Av” value [13] was 2.00, the “emergence (ERG) score Av” value [14] was 3.00 and the “establishment (EST1) score Av” value [14] was 4.00. The “relative contribution of HETO104 (AHAS3 KO) to herbicide tolerance conferred by HETO108 (AHAS1 missense): ERG” value [15] was 0.86, the “relative contribution of HETO104 (AHAS3 KO) to herbicide tolerance conferred by HETO108 (AHAS1 missense): EST1” value [15] was 0.91 and the “relative contribution of HETO104 (AHAS3 KO) to herbicide tolerance conferred by HETO108 (AHAS1 missense): EST2” value [15] was 0.95. For the same molecule, the “relative contribution of HETO104 (AHAS3 KO) to herbicide tolerance conferred by HETO108 (AHAS1 missense): PPTOX” value [15] was 0.83, the “relative contribution of HETO104 (AHAS3 KO) to herbicide tolerance conferred by HETO108 (AHAS1 missense): VIG1” value [15] was 0.90 and the “relative contribution of HETO104 (AHAS3 KO) to herbicide tolerance conferred by HETO108 (AHAS1 missense): VIG2” value [15] was 0.88. For the same molecule, the “relative contribution of HETO104 (AHAS3 KO) to herbicide tolerance conferred by HETO108 (AHAS1 missense): VIG3” value [15] was 0.96, the “relative contribution of HETO112 (AHAS1 KO) to herbicide tolerance conferred by HETO111 (AHAS3 missense): ERG” value [15] was 0.85 and the “relative contribution of HETO112 (AHAS1 KO) to herbicide tolerance conferred by HETO111 (AHAS3 missense): EST1” value [15] was 0.92. For the same molecule, the “relative contribution of HETO112 (AHAS1 KO) to herbicide tolerance conferred by HETO111 (AHAS3 missense): EST2” value [15] was 1.04, the “relative contribution of HETO112 (AHAS1 KO) to herbicide tolerance conferred by HETO111 (AHAS3 missense): PPTOX” value [15] was 1.06 and the “relative contribution of HETO112 (AHAS1 KO) to herbicide tolerance conferred by HETO111 (AHAS3 missense): VIG1” value [15] was 1.10.
